Reference: patent US12091399B2, “Phenyltetrazole derivatives as plasma kallikrein inhibitors” (Boehringer Ingelheim International GmbH, priority 2018, dated 2024)

What was measured:
Assay type in all cases: biochemical
Human PKK [1] = biological target: T1, Human PKK (Homo sapiens (Human), UniProt P03952); test: Inhibition of PKK using an endpoint assay (human PKK); conditions: 1 h at rt, 0.10 μM H-Pro-Phe-Arg-AMC
Description: (§1) The ability of compounds of formula (I) to inhibit plasma kallikrein (PKK), Factor XIIa (FXIIa), Factor XIa (FXIa), Factor Xa (FXa), Factor IIa (alpha-thrombin; FIIa), plasmin, trypsin, tissue kallikrein 1 (TK1), Factor Vila (FVIIa), or FVIIa complexed with Tissue Factor, phospholipids and CaCl2) (FVIIa/TF/PL/CaCl2) was determined using the following biochemical assays in assay buffer (100 mM Tris, 150 mM NaCL, adjusted to a pH of 7.8 with HCl, and containing 0.1% (w/v) BSA and 0.05% (v/v) Tween20) in the presence of 1% (v/v) DMSO:
Subsequently, PPACK II (Calbiochem) was added as a stop solution to achieve a final concentration of 1 μM and fluorescence was measured using an Envision Reader (PerkinElmer) with the wavelength excitation setting of 355 nm and the wavelength emission setting of 460 nm. The number of the compound corresponds to the number of the Example in the experimental section.

Human PKK [2] = biological target: T1, Human PKK; test: Inhibition of PKK (Ki), kinetic assay; conditions: 24° C., 0.25 mM H-Pro-Phe-Arg-AMC, IC50 corrected for KM
Description: as §1
Human PKK (1.78 nM or 0.025 U/mL; Enzyme Research Laboratories) was incubated at 24° C. with 0.25 mM fluorogenic substrate H-Pro-Phe-Arg-AMC (11295 from Bachem) and various concentrations of the test compound in assay buffer. Measurements were performed in a kinetic interval every 2nd minute for 16 min using a Spectramax M5 (Molecular Devices) with the following settings of the wavelength excitation of 350 nm and wavelength emission of 450 nm. The number of the compound corresponds to the number of the Example in the experimental section.
The pIC50 values were then fitted using a four-parametric fitting procedure using GraphPad Prism (version 6; GraphPad Software, Inc.). Respective Ki values were obtained by correction of the IC50 values for the respective KM value of the used substrate (see Table A for the obtained KM values of the used substrates) using the following formula: […]
Where the IC50 is in mol/L and the KM value in mmol/L.

[3] = biological target: PKK in kaolin activated human platelet poor plasma (Homo sapiens (Human), UniProt P03952); test: Inhibition of PKK in kaolin activated human PPP; conditions: global fit over 25, 75, 250, 750 μg/mL kaolin, 37° C.
Description: Platelet poor plasma (PPP) obtained from human wholeblood, anticoagulated with Na-Citrate, was incubated with various concentrations of the test compound together with either 25, 75, 250, or 750 μg/mL kaolin in assay buffer for 20 min at 37° C. such that for each kaolin dose used a concentration response was obtained for the test compound.
The number of the compound corresponds to the number of the Example in the experimental section.

Sequence of PKK in kaolin activated human platelet poor plasma (P03952 391-638): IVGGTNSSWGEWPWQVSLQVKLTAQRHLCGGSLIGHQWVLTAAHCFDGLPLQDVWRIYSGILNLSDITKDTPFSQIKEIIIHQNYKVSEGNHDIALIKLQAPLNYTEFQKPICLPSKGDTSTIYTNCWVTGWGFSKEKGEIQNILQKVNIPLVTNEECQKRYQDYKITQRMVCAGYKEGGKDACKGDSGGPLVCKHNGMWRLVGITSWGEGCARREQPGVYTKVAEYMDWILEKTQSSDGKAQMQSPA
Sequence of PKK in kaolin activated human platelet poor plasma (P03952 20-390 partner): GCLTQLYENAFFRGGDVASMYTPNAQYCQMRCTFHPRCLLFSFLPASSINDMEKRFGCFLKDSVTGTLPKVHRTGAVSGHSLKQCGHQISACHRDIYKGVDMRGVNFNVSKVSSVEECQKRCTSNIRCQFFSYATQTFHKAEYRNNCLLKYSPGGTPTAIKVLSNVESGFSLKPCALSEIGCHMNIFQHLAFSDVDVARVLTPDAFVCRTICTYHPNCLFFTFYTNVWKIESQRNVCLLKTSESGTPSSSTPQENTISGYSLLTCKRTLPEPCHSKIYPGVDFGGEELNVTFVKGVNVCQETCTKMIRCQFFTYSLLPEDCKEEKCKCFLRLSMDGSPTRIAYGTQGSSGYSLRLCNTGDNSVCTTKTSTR
T1 sequence (P03952 391-638): as the sequence (P03952 391-638) above
T1 sequence (P03952 20-390 partner): as the sequence (P03952 20-390 partner) above

SMILES	IC50 (Human PKK [1]) [nM]	Ki (Human PKK [2]) [nM]	IC90 [3] [nM]
Cc1nc(N2CC3CC3C2)ccc1Cn1cc(C(=O)NCc2cc(Cl)ccc2-n2cnnn2)cn1 (stereo not shown) [Example 1, 1-[(6-{3-azabicyclo[3.1.0]hexan-3-yl}-2-methylpyridin-3-yl)methyl]-N-{[5-chloro-2-(1H-1,2,3,4-tetrazol-1-yl)phenyl]-methyl}-1H-pyrazole-4-carboxamide]	0.5	0.3	202
Cc1nc(N2CC3CC3C2)ccc1Cn1cc(C(=O)NCc2cc(Cl)c(F)cc2-n2cnnn2)cn1 (stereo not shown) [Example 2]	5	0.8	1150
Cc1nc(N2CC3CC3C2)ccc1Cn1cc(C(=O)NCc2c(-n3cnnn3)ccc(Cl)c2F)cn1 (stereo not shown) [Example 3]	0.4	0.2	170
Cc1ccc(-n2cnnn2)c(CNC(=O)c2cnn(Cc3ccc(N4CC5CC5C4)nc3C)c2)c1 (stereo not shown) [Example 5]	0.9	0.4	316
Cc1nc(N2CC3C(C2)C3(F)F)ccc1Cn1cc(C(=O)NCc2cc(Cl)ccc2-n2cnnn2)cn1 (stereo not shown) [Example 6]	0.4		184
Cc1nc(N2CC3CC3C2)ccc1Cn1cc(C(=O)NCc2cc(Cl)ccc2-n2cnnn2)c(C(F)F)n1 (stereo not shown) [Example 9]	1	0.8	239
COCc1nn(Cc2ccc(N3CC4CC4C3)nc2C)cc1C(=O)NCc1cc(Cl)ccc1-n1cnnn1 (stereo not shown) [Example 13]	0.9	0.8	396
Cc1nc(N2CC3CC3C2)ccc1Cn1cc(C(=O)NCc2cc(Cl)ccc2-n2cnnn2)c2cncnc21 (stereo not shown) [Example 15]	2	0.7	419
COc1nn(Cc2ccc(N3CC4CC4C3)nc2C)cc1C(=O)NCc1cc(Cl)ccc1-n1cnnn1 (stereo not shown) [Example 21]	3	1	713
Cc1nc(N2CC3CC3C2)ccc1Cn1cc(C(=O)NCc2cc(Cl)ccc2-n2cnnn2)c(-c2cnn(C)c2)n1 (stereo not shown) [Example 42]	0.6	1	257
O=C(NCc1cc(Cl)ccc1-n1cnnn1)c1cn(Cc2ccc(N3CC4CC4C3)nc2)nc1C(F)F (stereo not shown) [Example 44]	1	0.5	341
O=C(NCc1cc(Cl)ccc1-n1cnnn1)c1cn(Cc2ccc(N3CC4CC4C3)nc2)c2ncccc12 (stereo not shown) [Example 45]	3	0.3	106
Cn1cc(-c2nn(Cc3ccc(N4CC5CC5C4)nc3)cc2C(=O)NCc2cc(Cl)ccc2-n2cnnn2)cn1 (stereo not shown) [Example 46]	0.7	1	341
COc1nn(Cc2ccc(N3CC4CC4C3)nc2)cc1C(=O)NCc1cc(Cl)ccc1-n1cnnn1 (stereo not shown) [Example 47]	3	0.7	711
Cc1nc(N2CC3CC3C2)ccc1Cn1cc(C(=O)NCc2cc(Cl)ccc2-n2cnnn2)c(N)n1 (stereo not shown) [Example 48]	0.8	0.5	316
Cc1nc(N2CC3CC3C2)ccc1Cn1cc(C(=O)NCc2cc(Cl)ccc2-n2cnnn2)c(Br)n1 (stereo not shown) [Example 49]	1	0.4	932

SMILES	IC50 (Human PKK [1]) [nM]	Ki (Human PKK [2]) [nM]	IC90 [3] [nM]
Nc1nn(Cc2ccc(N3CC4CC4C3)nc2)cc1C(=O)NCc1cc(Cl)ccc1-n1cnnn1 (stereo not shown) [Example 52]	0.6	0.4	103
Cc1nc(N2CC3(C2)CC3(F)F)ccc1Cn1cc(C(=O)NCc2cc(Cl)ccc2-n2cnnn2)cn1 [Example 54]	3	1	969
Cc1nc(N2CC3(CCC3)C2)ccc1Cn1cc(C(=O)NCc2cc(Cl)ccc2-n2cnnn2)cn1 [Example 59, 1-[(6-{2-azaspiro[3.3]heptan-2-yl}-2-methylpyridin-3-yl)methyl]-N-{[5-chloro-2-(1H-1,2,3,4-tetrazol-1-yl)phenyl]methyl}-1H-pyrazole-4-carboxamide]	0.7	0.3	847
Cc1nc(N2CCC3(CCC3)C2)ccc1Cn1cc(C(=O)NCc2cc(Cl)ccc2-n2cnnn2)cn1 [Example 60, 1-[(6-{6-azaspiro[3.4]octan-6-yl}-2-methylpyridin-3-yl)methyl]-N-{[5-chloro-2-(1H-1,2,3,4-tetrazol-1-yl)phenyl]methyl}-1H-pyrazole-4-carboxamide]	4	2	4070
Cc1nc(N2CC3(CN(C)C3)C2)ccc1Cn1cc(C(=O)NCc2cc(Cl)ccc2-n2cnnn2)cn1 [Example 83, N-{[5-chloro-2-(1H-1,2,3,4-tetrazol-1-yl)phenyl]methyl}-1-[(2-methyl-6-{6-methyl-2,6-diazaspiro[3.3]heptan-2-yl}pyridin-3-yl)methyl]-1H-pyrazole-4-carboxamide]	1090		
COC1C2CC1CN(c1ccc(Cn3cc(C(=O)NCc4cc(Cl)ccc4-n4cnnn4)cn3)c(C)n1)C2 (stereo not shown) [Example 84, N-{[5-chloro-2-(1H-1,2,3,4-tetrazol-1-yl)phenyl]methyl}-1-[(6-{6-methoxy-3-azabicyclo[3.1.1]heptan-3-yl}-2-methylpyridin-3-yl)methyl]-1H-pyrazole-4-carboxamide]	4		
Cc1nc(N2CCC3CC3C2)ccc1Cn1cc(C(=O)NCc2cc(Cl)ccc2-n2cnnn2)cn1 (stereo not shown) [Example 85, 1-[(6-{3-azabicyclo[4.1.0]heptan-3-yl}-2-methylpyridin-3-yl)methyl]-N-{[5-chloro-2-(1H-1,2,3,4-tetrazol-1-yl)phenyl]methyl}-1H-pyrazole-4-carboxamide]	3		
Cc1nc(N2C[C@@H]3[C@@H](C)[C@@H]3C2)ccc1Cn1cc(C(=O)NCc2cc(Cl)ccc2-n2cnnn2)cn1 [Example 86]	7		
Cc1nc(N2C[C@@H]3C[C@]3(N)C2)ccc1Cn1cc(C(=O)NCc2cc(Cl)ccc2-n2cnnn2)cn1 [Example 88, 1-({6-[(1R,5S)-1-amino-3-azabicyclo[3.1.0]hexan-3-yl]-2-methylpyridin-3-yl}methyl)-N-{[5-chloro-2-(1H-1,2,3,4-tetrazol-1-yl)phenyl]methyl}-1H-pyrazole-4-carboxamide]	127		
Cc1nc(N2CC[C@@]3(N)C[C@H]3C2)ccc1Cn1cc(C(=O)NCc2cc(Cl)ccc2-n2cnnn2)cn1 [Example 89, 1-({6-[(1S,6S)-6-amino-3-azabicyclo[4.1.0]heptan-3-yl]-2-methylpyridin-3-yl}methyl)-N-{[5-chloro-2-(1H-1,2,3,4-tetrazol-1-yl)phenyl]methyl}-1H-pyrazole-4-carboxamide]	61		
Cc1nc(N2CC3CCC(C2)N3)ccc1Cn1cc(C(=O)NCc2cc(Cl)ccc2-n2cnnn2)cn1 [Example 90, N-{[5-chloro-2-(1H-1,2,3,4-tetrazol-1-yl)phenyl]methyl}-1-[(6-{3,8-diazabicyclo[3.2.1]octan-3-yl}-2-methylpyridin-3-yl)methyl]-1H-pyrazole-4-carboxamide]	119		
Cc1nc(N2CC3(CCCN3)C2)ccc1Cn1cc(C(=O)NCc2cc(Cl)ccc2-n2cnnn2)cn1 [Example 91, N-{[5-chloro-2-(1H-1,2,3,4-tetrazol-1-yl)phenyl]methyl}-1-[(6-{2,5-diazaspiro[3.4]octan-2-yl}-2-methylpyridin-3-yl)methyl]-1H-pyrazole-4-carboxamide]	122		
Cc1nc(N2C[C@@H]3CCN[C@@H]3C2)ccc1Cn1cc(C(=O)NCc2cc(Cl)ccc2-n2cnnn2)cn1 [Example 92, 1-({6-[(3aS,6aS)-octahydropyrrolo[3,4-b]pyrrol-5-yl]-2-methylpyridin-3-yl}methyl)-N-{[5-chloro-2-(1H-1,2,3,4-tetrazol-1-yl)phenyl]methyl}-1H-pyrazole-4-carboxamide]	155		
Cc1nc(N2CCC3(CNC3)C2)ccc1Cn1cc(C(=O)NCc2cc(Cl)ccc2-n2cnnn2)cn1 [Example 93, N-{[5-chloro-2-(1H-1,2,3,4-tetrazol-1-yl)phenyl]methyl}-1-[(6-{2,6-diazaspiro[3.4]octan-6-yl}-2-methylpyridin-3-yl)methyl]-1H-pyrazole-4-carboxamide]	286		
Cc1nc(N2CC3(CC3)C2)ccc1Cn1cc(C(=O)NCc2c(F)cccc2-n2cnnn2)cn1 [Example 94, 1-[(6-{5-azaspiro[2.3]hexan-5-yl}-2-methylpyridin-3-yl)methyl]-N-{[2-fluoro-6-(1H-1,2,3,4-tetrazol-1-yl)phenyl]methyl}-1H-pyrazole-4-carboxamide]	4		
